According to US20230000876A1, “TREATING CANCERS WITH A CYCLIN-DEPENDENT KINASE INHIBITOR” (Nuvation Bio Inc., priority 2021, published 2023):
Like-named read-outs stand apart in the source and are kept apart here.

Test system: MCF-7 tumors
Type: in vivo
Settings: for T/C / TGI: PG-D37
Method: The in vivo anti-tumor efficacy of the compound of formula (I) either alone or in combination with fulvestrant on MCF-7 breast tumor model on female Balb/c nude mice was assessed. MCF-7 cells are a breast cancer cell line that is HR+HER2−. See Booms et al., (2019) Cancer Epidemiol Biomarkers Prev 28(10); 1735-1745, which is hereby incorporated by reference.
The study was in two parts. The first part was designed to measure tumor growth inhibition (TGI). The second part was used to measure pharmacokinetic and pharmacodynamic (PKPD) parameters. In the studies, the compound of formula (I) was dosed orally (po) and fulvestrant was dosed subcutaneously. […]
The MCF-7 tumor cells were maintained in vitro in MEM supplemented with 10% heat inactivated fetal bovine serum at 37° C. in an atmosphere of 5% CO2 in air. The tumor cells were routinely subcultured twice weekly. The cells growing in an exponential growth phase were harvested and counted for tumor inoculation.
Each mouse was inoculated subcutaneously at the right flank with MCF-7 (10*10^6) cells in 0.2 mL of PBS mixed with Matrigel (50:50) for tumor development. 17β-Estradiol (0.36 mg, 60-day release) pellets (Innovative Research of America Cat. No.: SE-121, pellet size: 3.0 mm) were implanted 2 days before cell inoculation.
In TGI part, the treatments was started on day 7 after cell inoculation when the average tumor volume reaches 173 mm^3. 72 mice were selected and assigned into 9 groups. The testing articles were administrated to the mice according to Table 1.
For TGI part, the major endpoint was to see if the tumor growth could be delayed or mice could be cured. Tumor size was measured twice weekly in two dimensions using a caliper, and the volume was expressed in mm^3 using the formula: V=0.5 a×b^2 where a and b are the long and short diameters of the tumor, respectively. The tumor sizes are then used for the calculation of T/C and TGI values.
The T/C value (in percent) is an indication of antitumor effectiveness; T and C are the mean volume of the treated and control groups, respectively, on a given day.
TGI was calculated for each group using the formula: TGI (%)=[1−(Ti−T0)/(Vi−V0)]×100; Ti is the average tumor volume of a treatment group on PG-Di, T0 is the average tumor volume of the treatment group on the day of treatment start, Vi is the average tumor volume of the vehicle control group on the same day with Ti, and V0 is the average tumor volume of the vehicle group on the day of treatment start.
For comparison among of tumor volume of groups 2-9 and group 1, a one-way ANOVA was performed. All the analysis were conducted using GraphPad Prism software. p<0.05 was considered to be statistically significant.

CC(C)N1CCOc2c(F)cc(-c3nc(Nc4ccc(C5CCN(C)CC5)cn4)ncc3F)cc21 [Compound (I), 5-fluoro-4-(8-fluoro-4-isopropyl-3,4-dihydro-2H-benzo[b][1,4]oxazin-6-yl)-N-(5-(1-methylpiperidin-4-yl)pyridin-2-yl)pyrimidin-2-amine]
Tumor volume (mean ± SEM) (10 mg/kg PO QD, day 0): 173 ± 12 mm^3 | Tumor volume (mean ± SEM) (10 mg/kg PO QD, day 3): 195 ± 14 mm^3 | Tumor volume (mean ± SEM) (10 mg/kg PO QD, day 6): 188 ± 25 mm^3 | Tumor volume (mean ± SEM) (10 mg/kg PO QD, day 9): 185 ± 15 mm^3 | Tumor volume (mean ± SEM) (10 mg/kg PO QD, day 13): 179 ± 21 mm^3 | Tumor volume (mean ± SEM) (10 mg/kg PO QD, day 16): 187 ± 22 mm^3 | Tumor volume (mean ± SEM) (10 mg/kg PO QD, day 20): 228 ± 36 mm^3 | Tumor volume (mean ± SEM) (10 mg/kg PO QD, day 23): 268 ± 37 mm^3 | Tumor volume (mean ± SEM) (10 mg/kg PO QD, day 27): 310 ± 56 mm^3 | Tumor volume (mean ± SEM) (10 mg/kg PO QD, day 30): 358 ± 60 mm^3 | Tumor volume (mean ± SEM) (10 mg/kg PO QD, day 34): 446 ± 93 mm^3 | Tumor volume (mean ± SEM) (10 mg/kg PO QD, day 37): 505 ± 116 mm^3 | Tumor volume (mean ± SEM) (10 mg/kg PO QD, day 41): 530 ± 113 mm^3 | Tumor volume (mean ± SEM) (10 mg/kg PO QD, day 44): 468 ± 99 mm^3 | Tumor volume (mean ± SEM) (10 mg/kg PO QD, day 48): 472 ± 120 mm^3 | T/C (10 mg/kg QD): 25.18% | TGI (10 mg/kg QD): 81.88% | Tumor volume (mean ± SEM) (30 mg/kg PO QD, day 0): 173 ± 11 mm^3 | Tumor volume (mean ± SEM) (30 mg/kg PO QD, day 3): 192 ± 16 mm^3 | Tumor volume (mean ± SEM) (30 mg/kg PO QD, day 6): 151 ± 24 mm^3 | Tumor volume (mean ± SEM) (30 mg/kg PO QD, day 9): 153 ± 19 mm^3 | Tumor volume (mean ± SEM) (30 mg/kg PO QD, day 13): 147 ± 17 mm^3 | Tumor volume (mean ± SEM) (30 mg/kg PO QD, day 16): 154 ± 18 mm^3 | Tumor volume (mean ± SEM) (30 mg/kg PO QD, day 20): 159 ± 21 mm^3 | Tumor volume (mean ± SEM) (30 mg/kg PO QD, day 23): 175 ± 23 mm^3 | Tumor volume (mean ± SEM) (30 mg/kg PO QD, day 27): 168 ± 25 mm^3 | Tumor volume (mean ± SEM) (30 mg/kg PO QD, day 30): 186 ± 28 mm^3 | Tumor volume (mean ± SEM) (30 mg/kg PO QD, day 34): 193 ± 34 mm^3 | Tumor volume (mean ± SEM) (30 mg/kg PO QD, day 37): 227 ± 41 mm^3 | Tumor volume (mean ± SEM) (30 mg/kg PO QD, day 41): 228 ± 51 mm^3 | Tumor volume (mean ± SEM) (30 mg/kg PO QD, day 44): 234 ± 52 mm^3 | Tumor volume (mean ± SEM) (30 mg/kg PO QD, day 48): 206 ± 39 mm^3 | T/C (30 mg/kg QD): 11.32% | TGI (30 mg/kg QD): 97.06% | Toxicity (body weight as indirect measurement) (MCF-7 tumor-bearing mice, 10 or 30 mg/kg PO QD, alone or with fulvestrant, 49 days): not toxic
